From patent US20240355418A1, “MULTIPLEX, TEMPORALLY RESOLVED MOLECULAR SIGNAL RECORDER AND RELATED METHODS” (University of Washington, priority 2021, published 2024)

Tested on: HEK293T and monoclonal lineage tracing cell line (iPE2(+) LT(+))
Test: Cell doubling time with or without Doxycycline
Format: cell-based
From the text: (A). Cell doubling times measured for HEK293T and the monoclonal lineage tracing cell line (iPE2(+) LT(+)), with or without Doxycycline (Dox). […] P values were obtained using the two-tailed Student's t-test with Bonferroni correction: only *P<0.05 are shown. The center and error bars are mean and standard deviations, respectively, from n=3 independent experiments.

For `C[C@H]1c2cccc(O)c2C(=O)C2=C(O)[C@]3(O)C(=O)C(C(N)=O)=C(O)[C@@H](N(C)C)[C@@H]3[C@@H](O)[C@@H]21` [Dox, Doxycycline hyclate], the “Effect on cell doubling time” value was “lengthened the cell doubling time”.
